Data: patent US8716231B2, “Use of benzo-fused heterocycle sulfamide derivatives for the treatment of pain” (Janssen Pharmaceutica NV, priority 2005, dated 2014)

How the values were obtained:
[1] = test system: paclitaxel-evoked mechano-allodynia and mechano-hyperalgesia; assay: Taxol Induced Peripheral Neuropathy Model (longer term study, Example 20); assay type: in vivo, Sprague-Dawley rats
Procedure: Paclitaxel (Taxol®, Bristol-Myers-Squibb; 6 mg/ml in a 50:50 mixture of Cremophor and ethanol) was diluted just before use with saline to a concentration of 2 mg/ml and injected IP in a volume of 1 ml/kg) on four alternate days (D0, D2, D4, and D6).
Adult male Sprague-Dawley rats (Harlan, Indianapolis, Ind.; Frederick, Md. breeding colony) were caged on sawdust bedding in groups of 3-4 with food and water available ad libitum and a 12:12 hr light-dark cycle.
Group 3 was treated with an equal volume of vehicle, daily, starting on D0 (the same day as the beginning of paclitaxel dosing).
The animals were habituated to the testing environment on three separate days and then three daily baseline sessions were given to measure the normal response rate to stimulation with von Frey hairs exerting 4 g or 15 g of pressure (4 gVFH and 15 gVFH). Normal rats rarely, if ever, withdraw from stimulation with 4 gVFH; thus, a post-paclitaxel increase in responding to this stimulus is indicative of mechano-allodynia. Normal rats withdraw from stimulation with 15 gVFH 10-20% of the time; thus an increased response frequency to this stimulus is indicative of mechano-hyperalgesia.
The animals were positioned beneath upturned plastic mouse cages atop an elevated platform with wire-mesh flooring. Each VFH was applied to the glabrous skin of the mid-heel and the presence or absence of a withdrawal response was noted. This was repeated 5 times on each hind paw and the animal's responses were summarized as a percent response score (e.g., 5 withdrawal responses to 15gVFH stimulation would yield a score of 50%). Behavior was assessed by an observer who was blind as to group assignment.
Behavioral tests for paclitaxel's effects began on day 13 (D13) and were repeated on D15, D17, D21, D24, D28, D31, D35 and D38. […] For these days the drug was given at 0900 h and behavioral tests began at 1300 h. Significant paclitaxel-evoked mechano-allodynia and mechano-hyperalgesia were expected to develop 10-14 days after the last injection of paclitaxel.

[2] = test system: spontaneous locomotor activity; assay: Taxol Induced Peripheral Neuropathy Model (pilot), Open Field testing; assay type: in vivo, Sprague-Dawley rats; details: 100 mg/kg po daily + Taxol, Day 11
[3] = test system: Taxol®-induced degeneration of sciatic nerve and right hind paw; assay: Taxol Induced Peripheral Neuropathy Model (pilot), histopathology; assay type: in vivo, Sprague-Dawley rats; details: 100 mg/kg po daily + Taxol; Day 13
Procedure: The animals were housed in polycarbonate plastic cages, 2 animals per cage, at a temperature of 18-26° C., 30-70% humidity, 12-hour light/dark cycle, with food and water available ad libityum.
On days 1, 3, 5, and 7, the rats received an ip (intraperitoneal) injection of Taxol® (2 mg/kg).
On Day 13, the animals were euthanized by carbon dioxide asphyxiation. The sciatic nerve and right hind paw were excised and placed in 10% neutral buffered formalin. The harvested tissues were blocked, embedded in paraffin, sectioned and stained with hemotoxylin and eosin. The tissue was examined using light microscopy and scored by an evaluator blind to the treatment regimen. The tissue was ranked on a scale of 0 to 3 based on the degree and amount of axonal disruption observed in the section, with 0 being a normal appearance of the axon, 1 to 2 being a mild to moderate disruption of the axons and a 3 being a complete disruption and Wallerian degeneration of the axons (Cavaletti, G, Tredici, G, Braga, M, Tazzari, S. Experimental peripheral neuropathy induced in adult rats by repeated intraperitoneal administration of Taxol®. Exper Neurol 133:64-72,1995). Data were analyzed using one-way ANOVA and Dunnett's test, with statistical significance at p<0.05.

[4] = test system: formalin-induced inflammatory-mediated pain response (licking of injected hind-paw); assay: Mouse Formalin Assay (NINDS); assay type: in vivo, mice
Procedure: The mouse formalin test is an acute and chronic model for testing the ability of a test compound for the treatment of pain.
In the Mouse Formalin Test, 0.5% formalin was injected s.c. into the plantar region of the hind-paw of adult male mice to induce an inflammatory-mediated pain response. Pain was expressed as licking of the injected area in a bi-modal manner—acute and chronic phase. The acute phase occurred immediately and lasted approximately […] post-injection, representing direct stimulation of pain fibers. Licking behavior resumes approximately 10 mins later (˜20 min post injection) and lasted 10-15 min, representing the chronic phase hypothesized to be caused by the release of inflammatory mediators such as cytokines.
Activity in the acute phase of the formalin test is an indicator of acute pain believed to correlate with peripheral pain pathways.
Compound #8 was evaluated in the Mouse Formalin Test as described above. […] For the acute phase the decrease was 52% from control (p<0.01), while for the chronic phase the decrease was 43% from control (p<0.01).

[5] = both 60 mg/kg and 120 mg/kg PO daily for 20 days from D0, paclitaxel 2 mg/kg IP D0, D2, D4, D6
[6] = 110 mg/kg, i.p. 15 min prior to formalin injection, p<0.01

SMILES: NS(=O)(=O)NC[C@H]1COc2cc(Cl)ccc2O1 [Compound #8, (2S)-(−)-N-(6-Chloro-2,3-dihydro-benzo[1,4]dioxin-2-ylmethyl)-sulfamide]
- continuation of suppressive effect after the last injection ([1]; 60 mg/kg and 120 mg/kg PO daily): approximately 11 days
- side-effects ([1]; 60 mg/kg and 120 mg/kg PO daily for 20 days): no apparent side-effects
- development of mechano-allodynia (4 gVFH test) [1, 5]: suppressed the development of mechano-allodynia and mechano-hyperalgesia
- development of mechano-hyperalgesia (15 gVFH test) [1, 5]: suppressed the development of mechano-allodynia and mechano-hyperalgesia
- vertical rearing (Open Field) ([2]; p<0.05): decreased vertical rearing compared to Taxol® alone
- horizontal movement (Open Field) ([2]; vs Taxol alone): no difference between treatment groups
- degeneration in the sciatic nerve (histopathology) [3]: positive trend to decreased degeneration in the sciatic nerve, although the differences were not statistically significant
- severity of degeneration in the right hind paw (histopathology) [3]: no effect on the severity of Taxol®-induced degeneration in the right hind paw
- chronic phase decrease from control ([4]; 60 mg/kg i.p., p<0.01): 40%
- acute phase decrease from control ([4]; 60 mg/kg i.p., p<0.05): 30%
- acute phase decrease from control [4, 6]: 52%
- chronic phase decrease from control [4, 6]: 43%
